The values that follow come from ChEMBL document CHEMBL1131027, “Enhancement of oral absorption in selective 5-HT1D receptor agonists: fluorinated 3-[3-(piperidin-1-yl)propyl]indoles” (J Med Chem, 1998).

Structures are written as SMILES. Some results are limits rather than exact numbers.

Experiment [1] can be described thus: The ionization constant (pKa) for the compound measured potentiometrically.
Experiment [2] relates to Rattus norvegicus. The experiment in a line: Concentration of compound in rat plasma obtained from cardiac (systemic) blood samples following peroral administration at 3 mg/kg. The class given is functional, organism-based. Set-up: dose 3 mg/kg.
Experiment [3] concerns Rattus norvegicus. The experiment in a line: Concentration of compound in rat plasma obtained from hepatic portal vein(hpv) blood samples following peroral administration at 3 mg/kg. The class given is functional, organism-based. Set-up: dose 3 mg/kg.
Experiment [4] deals with Serotonin 1 receptors; 5-HT1B & 5-HT1D (Homo sapiens) (UniProt P28222+P28221). The experiment in a line: Relative binding to serotonin 5-HT1D and 5-HT1B receptors. The class given is protein assay.
The target of experiment [5] is T1, 5-hydroxytryptamine receptor 1D (Homo sapiens, UniProt P28221). The experiment in a line: Displacement of [3H]5-HT from human 5-hydroxytryptamine 1D receptor expressed in CHO cells. The class given is cell-based.
The target of experiment [6] is T1, 5-hydroxytryptamine receptor 1D. The experiment in a line: Agonist induced [35S]GTP-gamma-S, binding in CHO cells expressing 5-HT 1d receptor. The class given is functional, cell-based.
The target is the same in experiment [7]. Kind of experiment: Percent efficacy relative to 5-HT treatment of CHO cells expressing 5-HT 1d receptor. The class given is functional, cell-based.

T1 sequence (P28221 whole entry): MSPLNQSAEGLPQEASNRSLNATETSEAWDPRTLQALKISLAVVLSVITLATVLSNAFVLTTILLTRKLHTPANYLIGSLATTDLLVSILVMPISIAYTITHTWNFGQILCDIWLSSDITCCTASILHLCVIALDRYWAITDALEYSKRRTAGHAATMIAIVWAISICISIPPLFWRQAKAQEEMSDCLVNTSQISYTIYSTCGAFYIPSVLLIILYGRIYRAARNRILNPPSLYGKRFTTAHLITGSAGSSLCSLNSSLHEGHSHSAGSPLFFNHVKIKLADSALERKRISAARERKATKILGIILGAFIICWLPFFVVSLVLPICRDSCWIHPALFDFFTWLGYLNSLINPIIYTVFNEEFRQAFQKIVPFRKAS

In turn, `c1ccc(CN2CCN(CCCc3c[nH]c4ccc(-n5cnnc5)cc34)CC2)cc1` displayed a pKa in experiment [1] of 8.2. The Concentration was 42 ng/mL in the experiment with Rattus norvegicus [2] and 178 ng/mL with Rattus norvegicus [3]. This molecule also registered a Selectivity in experiment [4] of 40.

Usually IC50 stands for the concentration needed to halve the response being measured. Low values mean inhibition by little substance, high ones a need for much substance. A word on the EC50: it is the concentration giving half of the maximal effect. Turning to `FC(Cc1c[nH]c2ccc(-n3cnnc3)cc12)CN1CCC(Cc2ccccc2)CC1` (stereo unspecified), the pKa in experiment [1] came to 8.7. In experiment [5], the IC50 was 0.95 nM. In experiment [6], this molecule yielded an EC50 of 11 nM. The Concentration with Rattus norvegicus [2] stood at 196 ng/mL; in the experiment on Rattus norvegicus [3] it was 781 ng/mL. In addition, in experiment [4], the Selectivity worked out at 65. Moreover, the Efficacy in experiment [7] was found to be 61%.

For the molecule `CN(Cc1ccccc1)C1CCN(CCCc2c[nH]c3ccc(-n4cnnc4)cc23)CC1`, the figures for the Concentration with Rattus norvegicus [2] and with Rattus norvegicus [3] were under 1 ng/mL and 4 ng/mL, respectively. The same molecule gave a Selectivity in experiment [4] of 66. The Efficacy in experiment [7] was determined as 94%.

Regarding `c1ccc(CC2CCN(CCCc3c[nH]c4ccc(-n5cnnc5)cc34)CC2)cc1`, the pKa in experiment [1] came to 9.7. The same molecule registered a concentration for half-maximal inhibition (IC50) in experiment [5] of 0.35 nM. This molecule also displayed a concentration giving a half-maximal response (EC50) in experiment [6] of 0.6 nM. The values for the Concentration in the experiment on Rattus norvegicus [2] and with Rattus norvegicus [3] were under 2 ng/mL and 25 ng/mL, respectively. For the same molecule, in experiment [4], the Selectivity was 57. The Efficacy in experiment [7] turned out to be 62%.

As for `OC[C@H](NC1CCN(CCCc2c[nH]c3ccc(-n4cnnc4)cc23)CC1)c1ccc(F)cc1`, the Concentration with Rattus norvegicus [2] and with Rattus norvegicus [3] was under 2 ng/mL throughout. Moreover, the Selectivity in experiment [4] stood at 206. The Efficacy in experiment [7] was 104%.

Regarding `OC[C@H](NC1CCN(CC(F)Cc2c[nH]c3ccc(-n4cnnc4)cc23)CC1)c1ccc(F)cc1` (stereo partly specified), the IC50 in experiment [5] is 1.4 nM. In addition, in experiment [6], a half-maximal response (EC50) required 1.7 nM. Moreover, the Concentration was under 1 ng/mL in the experiment on Rattus norvegicus [2] and 5 ng/mL in the experiment on Rattus norvegicus [3]. The same molecule yielded a Selectivity in experiment [4] of 225. The same molecule registered an Efficacy in experiment [7] of 95%.

`CN(Cc1ccccc1)[C@@H]1CCN(CCCc2c[nH]c3ccc(-n4cnnc4)cc23)C[C@@H]1F`: the pKa in experiment [1] is 8. The IC50 in experiment [5] came out at 13 nM. The Concentration came to 2 ng/mL in the experiment with Rattus norvegicus [2] and 216 ng/mL with Rattus norvegicus [3]. The Selectivity in experiment [4] was found to be 18.

With `CN(Cc1ccccc1)C1CCN(CC(F)Cc2c[nH]c3ccc(-n4cnnc4)cc23)CC1` (stereo unspecified), the 50% inhibitory concentration (IC50) in experiment [5] was 5.4 nM. For the same molecule, the EC50 in experiment [6] worked out at 18 nM. Also, the Concentration in the experiment on Rattus norvegicus [2] is 2 ng/mL; with Rattus norvegicus [3], 57 ng/mL. Further, in experiment [4], the Selectivity amounted to 230. This molecule also yielded an Efficacy in experiment [7] of 104%.

As for `CN(Cc1ccccc1)[C@H]1CCN(CCCc2c[nH]c3ccc(-n4cnnc4)cc23)C[C@H]1F`, in experiment [5], the IC50 was 2.2 nM. In experiment [4], this molecule displayed a Selectivity of 6.

`Fc1cccc(CCC2(F)CCN(CCCc3c[nH]c4ccc(-n5cnnc5)cc34)CC2)c1` showed a 50% inhibitory concentration (IC50) in experiment [5] of 0.75 nM. For the same molecule, the EC50 in experiment [6] came to 5.1 nM. The Selectivity in experiment [4] was found to be 30. In experiment [7], the Efficacy amounted to 71%.

In turn, `Fc1cccc(CCN2CCN(CCCc3c[nH]c4ccc(-n5cnnc5)cc34)CC2)c1` registered a Selectivity in experiment [4] of 125.

For the molecule `Fc1cccc(CCN2CCN(CC(F)Cc3c[nH]c4ccc(-n5cnnc5)cc34)CC2)c1` (stereo unspecified), the IC50 in experiment [5] amounted to 3.7 nM. The response in experiment [6] was half-maximal at 4.4 nM (EC50). The Selectivity in experiment [4] was found to be 324. Besides, the Efficacy in experiment [7] was 98%.

Molecule `FC1(Cc2ccccc2)CCN(CCCc2c[nH]c3ccc(-n4cnnc4)cc23)CC1` came in with a pKa in experiment [1] of 8.8. The IC50 in experiment [5] turned out to be 1 nM. The molecule further came in with a concentration for a half-maximal effect (EC50) in experiment [6] of 0.5 nM. The Concentration with Rattus norvegicus [2] is 52 ng/mL; in the experiment on Rattus norvegicus [3] it was 570 ng/mL. In experiment [4], this molecule came in with a Selectivity of 16. In addition, the Efficacy in experiment [7] was determined as 58%.
